From patent publication US10550150B2, “Short-chain peptides as Kappa (κ) opioid receptors (KOR) agonist” (CADILA HEALTHCARE LIMITED, priority 2015, dated 2020)
*1 amine or outer side, *2 acyl side, *3 side chain or, on linkers, in order; H or OH if unused. Where a SMILES comes first, the peptide text is derived from it. [ ]: non-standard residue; d: D form. The star is where a group is joined. X26 = O=C(CN1CC2CC(C1)N2*)OCc1ccccc1; X9 = O=C(CN1CC2CC(C1)N2[*:1])[*:2]; X28 = O=C(O)CCN(CCC(=O)O)*; X4 = O=C(O)CN1CC2CC(C1)N2*; Ac6c = NC1(C(=O)O)CCCCC1; Ac5c = NC1(C(=O)O)CCCC1; X10 = OCCN(CCO)*

Tests used:
[1] = system: acetic acid induced writhing; assay: Acetic acid-induced writhing model (antinociceptive activity); type: in vivo; conditions: acetic acid induced pain model, ICR mice (n = 6), iv
Protocol: In Vivo (ED50) Determination, Using Acetic Acid-Induced Writhing Model
The acetic acid induced writhing assay can detect antinociceptive activity for opioid drug, acting at peripheral, spinal and supraspinal levels. Animals were fasted 12 to 16 h prior testing. The nociceptive response (abdominal contractions or writhes) was induced by diluted acetic acid (0.6%, 10 ml/kg, for mice and 2.5%, 0.5 ml/rat) administered intraperitoneally (i.p.) at time 0 min.
In mouse experiments, compounds were administered orally, intravenously (i.v.) or subcutaneously (s.c.). To determine the antinociceptive potency and efficacy, full dose-response curves were constructed with test compounds, given 5 min prior to acetic acid administration. The duration of action was determined by using increasing pretreatment time (5, 60, and 120 min.), prior to acetic acid administration, for a sub-maximally effective dose defined during the dose-response curve study. In rat experiments, compounds were administered orally, intravenously (i.v.) or subcutaneously (s.c.), 15 min prior to acetic acid administration. The number of writhes was counted over the 15 min period following acetic acid administration. A writhe is defined as a constriction of the abdominal area, often with extension of the hind legs. Percentage maximum possible effect (MPE) was calculated as: % MPE=100−[(No. of writhes in test compound treated animal/No. of writhes in vehicle treated animal)]×100. ED50 dose was determined using GraphPad Prism.

[2] = biological target: T1, Kappa (κ) opioid receptors (KOR) (Homo sapiens, UniProt P41145); assay: In vitro KOR agonistic activity, cAMP based functional assay; type: cell-based; conditions: cAMP based functional assay, forskolin stimulated; read-out: In-vitro EC50
T1 construct: host or cells: unnamed cells grown in Ham's F-12 medium
T1 sequence (P41145 whole entry): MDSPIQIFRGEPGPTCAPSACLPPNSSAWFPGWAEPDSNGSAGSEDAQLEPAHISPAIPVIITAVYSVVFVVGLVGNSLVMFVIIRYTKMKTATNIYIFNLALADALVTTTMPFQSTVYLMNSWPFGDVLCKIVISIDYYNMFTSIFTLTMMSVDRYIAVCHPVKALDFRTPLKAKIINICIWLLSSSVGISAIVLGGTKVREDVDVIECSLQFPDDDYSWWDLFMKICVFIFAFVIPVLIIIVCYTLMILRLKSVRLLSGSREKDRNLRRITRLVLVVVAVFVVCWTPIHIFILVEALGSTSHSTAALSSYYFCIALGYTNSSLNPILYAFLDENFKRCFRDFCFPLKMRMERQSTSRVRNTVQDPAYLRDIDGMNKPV
Protocol: a) In Vitro (EC50) Determination, Using cAMP Based Functional Assay:
In vitro, KOR agonistic activity of test compounds were assessed using cAMP based functional assay. A 96-well plate was seeded at the density of 30,000 cells/well in 100 μl/well of complete Ham's F-12 medium. After seeding, the plates were incubated overnight at 37° C., 5% CO2, in CO2 Incubator. Overnight medium was discarded and plate washed with 100 μl/well of sterile PBS. Then 90 μl of 0.1 mM IBMX containing 0.5% Fatty acid free BSA in plain HamsF12 was added to each well. This was allowed to incubate for 30 minutes at 37° C., 5% CO2. Forskolin 20 μM in 0.5% Fatty acid free BSA was added to each well and allowed to incubate at room temperature for 5 minutes. Dilution of test compounds was made at 200× in DMSO and then diluted 1:10 times in BSA containing plain HamsF12. Agonist (test compounds, in 10% DMSO) was added to each well (5 μl) and allowed to incubate for 20 minutes at 37° C., 5% CO2. After 20 minutes, media was aspirated from the wells and the wells were washed with 1×PBS. Cell lysis buffer 4× (Arbor Assays, Cat # X074-60 ML) was diluted 1:4 in MilliQ and 90 μl of this buffer was added per well. Cells were allowed to shake at 500 rpm, room temperature for 20 minutes. Cell lysate was collected in 1.5 ml eppendorf tubes and centrifuged at 13.2 k rpm, 4° C. for 15 minutes. 50 μl of the supernatant of cell lysate was then used for cAMP estimation by cAMP direct ELISA kit (Arbor Assays, Cat # K019-H5).

SMILES: CC(C)CC(NC(=O)C(Cc1ccccc1)NC(=O)C(N)Cc1ccccc1)C(=O)NC(CCCCN)C(=O)N1C2CC1CN(CCO)C2 (stereo not shown) [Compound 38]
- In-vivo ED50 [1]: 0.04 mpk

SMILES: CC(C)CC(NC(=O)C(Cc1ccccc1)NC(=O)C(N)Cc1ccccc1)C(=O)NC(CCCCN)C(=O)N1C2CC1CN(S(C)(=O)=O)C2 (stereo not shown) [Compound 39]
- In-vivo ED50 [1]: 0.18 mpk

SMILES: NCCCCC(NC(=O)C1(NC(=O)C(Cc2ccccc2)NC(=O)C(N)Cc2ccccc2)CCCCC1)C(=O)N1C2CC1CN(CC(=O)O)C2 (stereo not shown) [Compound 41] (H-FF[Ac6c]K-X4; configuration not given here)
- EC50 [2]: 0.015 nM

SMILES: NCCCCC(NC(=O)C1(NC(=O)C(Cc2ccccc2)NC(=O)C(N)Cc2ccccc2)CCCC1)C(=O)N1C2CC1CN(CC(=O)O)C2 (stereo not shown) [Compound 42] (H-FF[Ac5c]K-X4; configuration not given here)
- In-vivo ED50 [1]: 0.23 mpk

SMILES: CC(C)CC(NC(=O)C(Cc1ccccc1)NC(=O)C(N)Cc1ccccc1)C(=O)NC(CCCCN)C(=O)N1C2CC1CN(CC(=O)OCc1ccccc1)C2 (stereo not shown) [Compound 49]
- EC50 [2]: 0.016 nM

SMILES: NCCCCC(NC(=O)C1(NC(=O)C(Cc2ccccc2)NC(=O)C(N)Cc2ccccc2)CCCCC1)C(=O)N1C2CC1CN(CC(=O)OCc1ccccc1)C2 (stereo not shown) [Compound 50] (H-FF[Ac6c]K-X26; configuration not given here)
- EC50 [2]: 0.008 nM

SMILES: CC(C)CC(NC(=O)C(Cc1ccccc1)NC(=O)C(N)Cc1ccccc1)C(=O)NC(CCCCN)C(=O)N1CC2CC(C1)N2 (stereo not shown) [Compound 51]
- EC50 [2]: 0.012 nM

SMILES: CC(C)CC(NC(=O)C(Cc1ccccc1)NC(=O)C(C)(N)Cc1ccccc1)C(=O)NC(CCCCN)C(=O)N1CC2CC(C1)N2CC(=O)O (stereo not shown) [Compound 57]
- In-vivo ED50 [1]: 0.26 mpk

SMILES: CC(C)CC(NC(=O)C(Cc1ccccc1)NC(=O)C(N)Cc1ccccc1)C(=O)NC(CCCCN)C(=O)N1CC2CC1CN2Cc1ccccc1 (stereo not shown) [Compound 62]
- In-vivo ED50 [1]: 0.31 mpk

SMILES: CC(C)CC(NC(=O)C(Cc1ccccc1)NC(=O)C(N)Cc1ccc(O)cc1)C(=O)NC(CCCCN)C(=O)N1C2CC1CN(CC(=O)O)C2 (stereo not shown) [Compound 90] (H-YFLK-X4; configuration not given here)
- In-vivo ED50 [1]: 0.98 mpk

SMILES: NCCCCC(NC(=O)C1(NC(=O)C(Cc2ccccc2)NC(=O)C(N)Cc2ccc(O)cc2)CCCCC1)C(=O)N1C2CC1CN(CC(=O)O)C2 (stereo not shown) [Compound 92] (H-YF[Ac6c]K-X4; configuration not given here)
- EC50 [2]: 0.018 nM

SMILES: CC(C)CC(NC(=O)C(Cc1ccccc1)NC(=O)C(N)Cc1ccccc1)C(=O)NC(CCCCN)C(=O)N1C2CC1CN(C(=O)CCCCCN)C2 (stereo not shown) [Compound 93]
- In-vivo ED50 [1]: 0.11 mpk

SMILES: CC(C)CC(NC(=O)C(Cc1ccccc1)NC(=O)C(N)Cc1ccccc1)C(=O)NC(CCCCN)C(=O)N1C2CC1CN(C(=O)C(N)CO)C2 (stereo not shown) [Compound 97]
- In-vivo ED50 [1]: 0.42 mpk

SMILES: CC(C)CC(NC(=O)C(Cc1ccccc1)NC(=O)C(N)Cc1ccccc1)C(=O)NC(CCCCN)C(=O)N1C2CC1CN(CC(=O)N(CC(=O)O)CC(=O)O)C2 (stereo not shown) [Compound 99]
- EC50 [2]: 0.016 nM

SMILES: CC(C)CC(NC(=O)C(Cc1ccccc1)NC(=O)C(N)Cc1ccccc1)C(=O)NC(CCCCN)C(=O)N1C2CC1CN(CC(=O)N(CCC(=O)O)CCC(=O)O)C2 (stereo not shown) [Compound 100] (H-FFLK[X9]-X28; configuration not given here)
- EC50 [2]: 0.015 nM

SMILES: CC(C)CC(NC(=O)C(Cc1ccccc1)NC(=O)C(N)Cc1ccccc1)C(=O)NC(CCCCN)C(=O)N1C2CC1CN(CC(=O)N(CCO)CCO)C2 (stereo not shown) [Compound 101] (H-FFLK[X9]-X10; configuration not given here)
- EC50 [2]: 0.012 nM

SMILES: CC(C)CC(NC(=O)C(Cc1ccccc1)NC(=O)C(N)Cc1ccccc1)C(=O)NC(CCCCN)C(=O)N1C2CC1CN(C(=O)CN(CC(=O)O)CC(=O)O)C2 (stereo not shown) [Compound 102]
- EC50 [2]: 0.012 nM

SMILES: CC(C)CC(NC(=O)C(Cc1ccccc1)NC(=O)C(N)Cc1ccccc1)C(=O)NC(CCCCN)C(=O)N1C2CC1CN(CC(=O)NC(CCC(=O)O)C(=O)O)C2 (stereo not shown) [Compound 104] (H-FFLK[X9]E-OH; configuration not given here)
- In-vivo ED50 [1]: 0.07 mpk

SMILES: CC(C)CC(NC(=O)C(Cc1ccccc1)NC(=O)C(N)Cc1ccccc1)C(=O)NC(CCCCN)C(=O)N1C2CCC1CC(O)C2 (stereo not shown) [Compound 105]
- EC50 [2]: 0.002 nM
